Literature values in patent publication US11798661B2, “Methods for lowering blood pressure with a dihydropyridine-type calcium channel blocker pharmaceutical composition” (A[…] Limited, priority 2018, dated 2023).

Conditions: co-administration of 240 mL grapefruit juice with a single oral dose of amlodipine 10 mg

CCOC(=O)C1=C(COCCN)NC(C)=C(C(=O)OC)C1c1ccccc1Cl (racemic) [amlodipine, (RS)-3-ethyl 5-methyl 2-[(2-aminoethoxy)methyl]-4-(2-chlorophenyl)-6-methyl-1,4-dihydropyridine-3,5-dicarboxylate]
effect on the pharmacokinetics of amlodipine: no significant effect
